According to ChEMBL document CHEMBL1146119, “Amino functionalized novel cholic acid derivatives induce HIV-1 replication and syncytia formation in T cells” (J Med Chem, 2006):
Activity calls are given as the source filed them. The rule behind the calls is not given here.

Tested on: Human immunodeficiency virus 1
Assay: Induction of HIV1 NL4-3 virus replication in CEM-GFP cells
Format: functional, organism-based

Compound: C[C@H](CCC(=O)O)[C@H]1CC[C@H]2[C@@H]3[C@H](O)C[C@@H]4C[C@H](O)CC[C@]4(C)[C@H]3C[C@H](O)[C@]12C
- Activity: inactive

Compound: COC(=O)CC[C@@H](C)[C@H]1CC[C@H]2[C@H]3[C@H]([C@@H](N=[N+]=[N-])C(=O)[C@]12C)[C@@]1(C)CC[C@@H](OC(C)=O)C[C@H]1C[C@H]3OC(C)=O
- Activity: Active

Compound: COC(=O)CC[C@@H](C)[C@H]1CC[C@H]2[C@H]3[C@H]([C@H](N)[C@H](O)[C@]12C)[C@@]1(C)CC[C@@H](OC(C)=O)C[C@H]1C[C@H]3OC(C)=O
- Activity: Active

Compound: COC(=O)CC[C@@H](C)[C@H]1CC[C@H]2[C@H]3[C@H]([C@H](N=[N+]=[N-])C(=O)[C@]12C)[C@@]1(C)CC[C@@H](OC(C)=O)C[C@H]1C[C@H]3OC(C)=O
- Activity: Active

Compound: COC(=O)CC[C@@H](C)[C@H]1CC[C@H]2[C@H]3[C@H]([C@@H](N)[C@@H](O)[C@]12C)[C@@]1(C)CC[C@@H](OC(C)=O)C[C@H]1C[C@H]3OC(C)=O
- Activity: Active

Compound: COC(=O)CC[C@@H](C)[C@H]1CC[C@H]2[C@@H]3[C@H](OC(C)=O)C[C@@H]4C[C@H](OC(C)=O)CC[C@]4(C)[C@H]3C[C@H](O)[C@]12C
- Activity: inactive

Compound: COC(=O)CC[C@@H](C)[C@H]1CC[C@H]2[C@H]3[C@H]([C@H](N)C(=O)[C@]12C)[C@@]1(C)CC[C@@H](OC(C)=O)C[C@H]1C[C@H]3OC(C)=O
- Activity: Active

Compound: COC(=O)CC[C@@H](C)[C@H]1CC[C@H]2[C@H]3C(=C(N)C(=O)[C@]12C)[C@@]1(C)CC[C@@H](OC(C)=O)C[C@H]1C[C@H]3OC(C)=O
- Activity: Active
